Test [1] deals with CD8+ T cells. Nature of the test: Peptide-HLA tetramer staining after in vitro peptide-specific T cell expansion. The class given is cell-based, human. As to conditions: healthy donor PBMCs after 20 days in vitro stimulation. The protocol:
T cells were resuspended at 2×10^6/mL in AIM V media supplemented with 50 μg/mL gentamicin (ThermoFisher Scientific) and 1% HEPES. […] Cells were cultured for 10 days at 37° C., 5% CO2. On day 3 and 7, half the culture media was replaced with fresh culture media containing 100 IU/mL IL-2, 50 ng/mL IL-7, and 50 ng/mL IL-15 (day 3) and 200 IU/mL IL-2, 50 ng/mL IL-7, and 50 ng/mL IL-15 (day 7). On day 10, thawed PBMCs from the same donor were used to generate a new batch of T cell-depleted cells.

Test [2] concerns CD8+ T cells. Nature of the test: FEST assay (functional expansion of specific T cells, TCR Vβ CDR3 sequencing). In kind it is cell-based, human. As to conditions: for Number of TCRβ clonotypes specifically expanded: FEST assay, donor D12, stimulation with a single peptide or a pool; for TCRß clonotype (TCRß CDR3 sequence) amplified: Table 3B, in vitro stimulation with peptide alone or pool, donor D12. The protocol: In vitro peptide-specific T cell expansion. Peptide-specific CD8^+ T cells from 4 healthy donors were expanded in vitro (D11, D12, D13, and D14). The expanded cells from D12 were used for FEST and tetramer staining assays, whereas the expanded cells from D11, D13, and D14 were used only for tetramer staining assays.
T cells were cultured as previously described, with minor modifications (Danilova et al., 2018). Briefly, on day 0, thawed PBMCs from each healthy donor (BioIVT) were T cell-enriched using the Human Pan T cell isolation kit (Miltenyi Biotec). T cells were resuspended at 2×10^6/mL in AIM V media supplemented with 50 μg/mL gentamicin (ThermoFisher Scientific) and 1% HEPES. The T cell-negative fraction was irradiated at 30 Gy, washed, and resuspended at 2×10^6/mL in AIM V media supplemented with 50 μg/mL gentamicin and 1% HEPES. 2.5 ml per well of both T cells and irradiated T cell-depleted cells were added to a 6-well plate, along with either a peptide alone, a peptide pool (up to 6 MAPs per pool, 1 μg/mL final concentration for each MAP) or without peptide. Cells were cultured for 10 days at 37° C., 5% CO2. On day 3 and 7, half the culture media was replaced with fresh culture media containing 100 IU/mL IL-2, 50 ng/mL IL-7, and 50 ng/mL IL-15 (day 3) and 200 IU/mL IL-2, 50 ng/mL IL-7, and 50 ng/mL IL-15 (day 7). On day 10, thawed PBMCs from the same donor were used to generate a new batch of T cell-depleted cells. These cells were irradiated at 30 Gy and added to cultures at a 1:1 T cell:non-T cell ratio, along with 1 μg/mL of relevant peptide(s) or without peptide. On day 13 and 17, at least half the culture media was replaced with fresh culture media (final concentrations: 100 IU/mL IL-2, 25 ng/mL IL-7, and 25 ng/mL IL-15). On day 20, cells were harvested to perform tetramer staining and/or FEST assays.
FEST assays. For FEST assays, CD8^+ cells were further isolated using the Human CD8^+ T Cell Isolation Kit (Miltenyi Biotec). As a negative control, CD8^+ T cells were also isolated from freshly thawed uncultured PBMCs of the same healthy donor. DNA was extracted from CD8^+ T cells using a QIAGEN DNA blood mini kit (QIAGEN). TCR Vβ CDR3 sequencing was performed using the survey resolution of the immunoSEQ platform (Adaptive Biotechnologies). Raw data exported from the immunoSEQ portal were processed with the FEST web tool (www.stat-apps.onc.jhmi.edu/FEST).
Given that paMAPs are appealing targets for immunotherapy, their immunogenicity was tested using in vitro T cell assays with peripheral blood mononuclear cells (PBMCs) from healthy donors. paMAPs were prioritized based on four criteria: i) the immunogenicity score predicted by Repitope, a machine learning algorithm that uses public T-cell receptor (TCR) databases to predict a probability of T cell response (Ogishi and Yotsuyanagi, 2019), ii) the HLA allotype presenting the paMAP (HLAA*02:01 or HLA-B*53:01 shared by the iPSCs and PBMCs donors), iii) expression in minimum 10% of the samples in at least one TOGA cancer type (FIG. 3), and iv) novel MAP status. The […] T cell response against 11 paMAPs was tested using peptide-HLA tetramer staining and/or more sensitive functional expansion of specific T cells (FEST) assays (Danilova et al., 2018). In FEST assays, TCR sequencing is performed on T cells stimulated or not with synthetic paMAPs. T cells were stimulated in vitro with autologous T cell-depleted PBMCs pulsed with individual or pooled (n=5 or 6) paMAPs (Tables 3A-B).

Another test concerns cytolytic T lymphocytes. Conditions: MAGEA4-derived paMAPs; cited from earlier work.
Test [3] concerns iPSCs. Briefly: Flow cytometry of surface HLA-A,B,C (QIFIKIT) and pluripotency markers on IFN-γ-treated iPSCs. The class given is cell-based, human. Conditions: 40 ng/mL IFN-γ, 72 h. Here is the method: (§1) hiPSC22 cells derived from adult human skin fibroblasts using defective polycistronic retroviruses expressing OCT4, SOX2, KLF4, and c-MYC were obtained from Takara Bio (Cellartis human iPS cell line 22). hiPSC22 cells were cultured in the Cellartis® DEF-CS™ 500 Basal Medium with Additives (Takara Bio) on coated (Cellartis DEF-CS 500 COAT-1, Takara Bio) cell culture vessels according to the manufacturer's instructions. Fibro-iPSC.1 and Fibro-iPSC.2 cells are biological replicates of the same iPS cell line reprogrammed from adult human dermal fibroblasts using lentiviruses expressing OCT4, SOX2, NANOG, and LIN28, as per (Hong et al., 2011), and were provided by Dr. Mick Bathia (McMaster University, Ontario, Canada). […]
Single-cell suspensions were stained with PerCP-Cy5.5 Mouse anti-Oct3/4, PE Mouse anti-SSEA-1, Alexa Fluor 647 Mouse anti-SSEA-4 antibodies or the respective isotypes (Human and Mouse Pluripotent Stem Cell Analysis Kit, BD Biosciences), APC/Cyanine7 anti-human/mouse SSEA-3 (BioLegend) or the APC-Cy™7 Rat IgM, K Isotype Control (BD Biosciences) according to the manufacturers' instructions. Surface HLA-A,B,C molecules were quantified using a QIFIKIT (FITC conjugate, Agilent Dako) as per the manufacturer's instructions. Flow cytometry experiments were performed on a ZE5 (Bio-Rad), and data were analyzed using the FlowJo software. […]

In test [4] the test system is iPSCs. Briefly: MS-based identification of MHC I-associated peptides from iPSCs. Also on record: species or system human. As to conditions: 40 ng/mL IFN-γ, 72 h. Here is the method:
as §1, with “Canada). Fibro-iPSC.1 and Fibro-iPSC.2 were cultured on Matrigel® (Corning, diluted in DMEM/F-12 from Gibco)-coated cell culture vessels in mTeSR1 medium ([…]), according to the manufacturer's instructions. All iPSCs were passaged using the Gentle Cell Dissociation Reagent ([…]) or were dissociated to single cells using TrypLE Express (Gibco) and washed with DPBS (Gibco) for downstream analyses. After removing 3-5×10^6 iPSCs for RNA-seq and 5×10^6 cells for flow cytometry, iPSCs were pelleted and stored at −80 degrees C. until MS analysis.” for “Canada).”

Entries after “also recorded” stand apart in the source; their conditions may differ.

Consider “SLLGSSEILEV (listed as Homo sapiens) [paMAP]”, for which the “T-cell response (immunogenicity) by peptide-HLA tetramer staining” value (“T-cell response (immunogenicity)” below) in the test on CD8+ T cells [1] was “one out of four donors”. In the test with CD8+ T cells [2], the “Number of TCRβ clonotypes specifically expanded” value (from here on “Number”) is reported as “two to four”. The “TCRß clonotype (TCRß CDR3 sequence) amplified” value (shortened to “TCRß clonotype”) with CD8+ T cells [2] (listed as pa_12) is on record as “CASSSRTDTYSPLHF (SEQ ID NO: 81); also recorded: CASSLGRWNSPLHF (SEQ ID NO: 82)”.
As for “VTLSTYFHV (listed as Homo sapiens) [paMAP]”, the “Number” value with CD8+ T cells [2] is listed as “two to four”. Moreover, in the test on CD8+ T cells [2] (listed as pa_10), the “TCRß clonotype” value was “CASSKWGSYGYTF (SEQ ID NO: 75); also recorded: CASSLPDTTYEQYF (SEQ ID NO: 76)”.
For “KVLEHVVRV (listed as Homo sapiens) [previously reported paMAP derived from MAGEA4]”, in the test on cytolytic T lymphocytes, the “Immunogenic in previous studies” value was “immunogenic in previous studies”.
With “LPMWKALLF (listed as Homo sapiens) [paMAP]”, in the test with CD8+ T cells [2], the “Number” value is on record as “two to four”. The “TCRß clonotype” value in the test with CD8+ T cells [2] (listed as pa_06) is given as “CASSGPGDQPQHF (SEQ ID NO: 83); also recorded: CASSEWGSRAGGGDTQYF (SEQ ID NO: 84)”.
On to “ALYPQPPTV (listed as Homo sapiens) [paMAP]”, for which, in the test with CD8+ T cells [2], the “Number” value was “two to four”. Further, in the test with CD8+ T cells [2] (listed as pa_11), the “TCRß clonotype” value is “CASSYRTGSAEAFF (SEQ ID NO: 77); also recorded: CASSLGGAYEQYF (SEQ ID NO: 78); also recorded: CASSYPQGGEQFF (SEQ ID NO: 79); also recorded: CATSRGTGVNTEAFF (SEQ ID NO: 80)”.
On to “IFN-γ: recombinant human IFN-γ (Gibco) used to raise MHC I on iPSCs”, for which the “Increase in surface HLA-A/B/C levels” value with iPSCs [3] (average of three fibroblast-derived iPSC samples) came out at 34 fold. For the same substance, in the test with iPSCs [3] (iPSCs), the “Expression of canonical pluripotency markers” value is on record as “without affecting the expression of canonical pluripotency markers”. Besides, the “More unique MAPs detected than for untreated iPSCs” value with iPSCs [4] is 1.8-4.5 fold.
Regarding “FLLPGVLLSEA (listed as Homo sapiens) [previously reported saMAP from UGT3A2]”, in the test on CD8+ T cells [1], the “T-cell response (immunogenicity)” value is “immunogenic in one donor”.
As for “KLAQIIRQV (listed as Homo sapiens) [paMAP]”, the “T-cell response (immunogenicity)” value with CD8+ T cells [1] is given as “one out of four donors”.
With “GVYDGREHTV (listed as Homo sapiens) [previously reported paMAP derived from MAGEA4]”, the “Immunogenic in previous studies” value in the test on cytolytic T lymphocytes is recorded as “immunogenic in previous studies”.

These data come from patent US20240382590A1, “NOVEL TUMOR-SPECIFIC ANTIGENS FOR CANCER STEM CELLS AND USES THEREOF” (UNIVERSITÉ DE MONTRÉAL, priority 2021, published 2024).
